According to ChEMBL document CHEMBL5465560, “Selectivity Literature for EUbOPEN Chemogenomic Library” (2024):

Assays:
[1] = target: Serine/threonine-protein kinase SIK3 (Homo sapiens) (UniProt Q9Y2K2); experiment: Selectivity interaction (KinomeScan (DiscoverX)) EUB0000666a SIK3; conditions: at 10 µM
[2] = target: Ribosomal protein S6 kinase alpha-2 (Homo sapiens) (UniProt Q15349); experiment: Selectivity interaction (Kinome Scan (DiscoverX)) EUB0000229b RPS6KA2; conditions: at 10 µM
[3] = target: Receptor tyrosine-protein kinase erbB-3 (Homo sapiens) (UniProt P21860); experiment: Selectivity interaction (KinomeScan (DiscoverX)) EUB0001079a ERBB3; conditions: at 1 µM
[4] = target: T1, Mitogen-activated protein kinase 13 (Homo sapiens) (UniProt O15264); experiment: Selectivity interaction (KinomeScan (DiscoverX)) EUB0001079a MAPK13; conditions: at 1 µM
T1 sequence (whole entry): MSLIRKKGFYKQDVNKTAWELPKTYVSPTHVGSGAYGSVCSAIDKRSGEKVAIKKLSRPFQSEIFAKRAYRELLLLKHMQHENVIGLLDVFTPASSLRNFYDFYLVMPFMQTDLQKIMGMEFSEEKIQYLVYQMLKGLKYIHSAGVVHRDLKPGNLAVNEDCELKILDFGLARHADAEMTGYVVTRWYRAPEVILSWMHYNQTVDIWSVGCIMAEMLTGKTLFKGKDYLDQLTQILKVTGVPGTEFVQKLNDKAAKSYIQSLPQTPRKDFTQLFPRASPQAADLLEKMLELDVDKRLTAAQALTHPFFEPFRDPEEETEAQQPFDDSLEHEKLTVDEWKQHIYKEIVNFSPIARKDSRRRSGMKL

Aurora kinase B = Aurora kinase B (Homo sapiens, UniProt Q96GD4); experiment: Selectivity interaction (Kinase panel (DSF assay)) EUB0001558a AURKB
[5] = target: Serine/threonine-protein kinase pim-3 (Homo sapiens) (UniProt Q86V86); experiment: Selectivity interaction (Kinase panel (DSF assay)) EUB0001558a PIM3
[6] = target: Tyrosine-protein kinase Lyn (Homo sapiens, UniProt P07948); conditions: at 10 µM
[7] = target: Casein kinase I isoform delta (Homo sapiens, UniProt P48730); conditions: at 10 µM
[8] = target: Tyrosine-protein kinase CSK (Homo sapiens) (UniProt P41240); experiment: Selectivity interaction (ActivX KiNativ screen (kinase selectivity in THP-1 cell lysates)) EUB0000639a CSK; assay type: subcellular; conditions: lysate, at 1 µM
[9] = target: Insulin receptor-related protein (Homo sapiens) (UniProt P14616); experiment: Selectivity interaction (KinomeScan (DiscoverX)) EUB0000618a INSRR; conditions: at 10 µM
[10] = target: T2, Interleukin-1 receptor-associated kinase 4 (Homo sapiens) (UniProt Q9NWZ3); experiment: Selectivity interaction (KinomeScan (DiscoverX)) EUB0001619a IRAK4; conditions: at 1 µM
T2 sequence (whole entry): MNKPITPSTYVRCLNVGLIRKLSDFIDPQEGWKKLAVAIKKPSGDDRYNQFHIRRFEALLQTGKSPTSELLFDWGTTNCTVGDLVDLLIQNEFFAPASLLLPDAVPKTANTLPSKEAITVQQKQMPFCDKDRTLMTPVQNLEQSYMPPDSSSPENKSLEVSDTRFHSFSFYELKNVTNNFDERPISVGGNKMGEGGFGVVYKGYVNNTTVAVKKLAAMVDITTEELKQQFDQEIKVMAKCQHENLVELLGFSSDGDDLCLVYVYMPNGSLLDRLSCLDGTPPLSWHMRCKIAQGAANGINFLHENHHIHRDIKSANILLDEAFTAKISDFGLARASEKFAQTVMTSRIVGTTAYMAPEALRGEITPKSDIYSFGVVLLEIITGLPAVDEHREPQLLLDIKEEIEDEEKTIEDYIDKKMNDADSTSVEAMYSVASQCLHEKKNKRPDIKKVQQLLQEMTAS

[11] = target: Ribosomal protein S6 kinase alpha-4 (Homo sapiens) (UniProt O75676); experiment: Selectivity interaction (SelectScreen profiling (Invitrogen)) EUB0000607a RPS6KA4; conditions: at 2 µM
[12] = target: Phosphatidylinositol 4,5-bisphosphate 3-kinase catalytic subunit beta isoform (Homo sapiens) (UniProt P42338); experiment: Selectivity interaction (ProQinase) EUB0000171b PIK3CB
[13] = target: T3, Serine/threonine-protein kinase Sgk2 (Homo sapiens) (UniProt Q9HBY8); experiment: Selectivity interaction (ProQinase) EUB0000171b SGK2
T3 sequence (whole entry): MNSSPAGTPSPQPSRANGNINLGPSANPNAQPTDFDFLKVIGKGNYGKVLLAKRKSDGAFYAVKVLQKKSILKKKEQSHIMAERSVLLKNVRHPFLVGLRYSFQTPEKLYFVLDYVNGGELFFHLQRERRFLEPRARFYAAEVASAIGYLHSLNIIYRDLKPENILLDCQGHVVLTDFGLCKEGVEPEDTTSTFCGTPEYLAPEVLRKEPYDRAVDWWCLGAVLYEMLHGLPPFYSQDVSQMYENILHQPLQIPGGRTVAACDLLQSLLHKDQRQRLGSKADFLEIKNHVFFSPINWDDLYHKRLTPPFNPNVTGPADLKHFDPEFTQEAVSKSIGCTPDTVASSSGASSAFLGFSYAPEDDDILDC

Chain of Phosphatidylinositol 4,5-bisphosphate 3-kinase catalytic subunit beta isoform (Homo sapiens) (P42338 whole entry, looked up, canonical isoform): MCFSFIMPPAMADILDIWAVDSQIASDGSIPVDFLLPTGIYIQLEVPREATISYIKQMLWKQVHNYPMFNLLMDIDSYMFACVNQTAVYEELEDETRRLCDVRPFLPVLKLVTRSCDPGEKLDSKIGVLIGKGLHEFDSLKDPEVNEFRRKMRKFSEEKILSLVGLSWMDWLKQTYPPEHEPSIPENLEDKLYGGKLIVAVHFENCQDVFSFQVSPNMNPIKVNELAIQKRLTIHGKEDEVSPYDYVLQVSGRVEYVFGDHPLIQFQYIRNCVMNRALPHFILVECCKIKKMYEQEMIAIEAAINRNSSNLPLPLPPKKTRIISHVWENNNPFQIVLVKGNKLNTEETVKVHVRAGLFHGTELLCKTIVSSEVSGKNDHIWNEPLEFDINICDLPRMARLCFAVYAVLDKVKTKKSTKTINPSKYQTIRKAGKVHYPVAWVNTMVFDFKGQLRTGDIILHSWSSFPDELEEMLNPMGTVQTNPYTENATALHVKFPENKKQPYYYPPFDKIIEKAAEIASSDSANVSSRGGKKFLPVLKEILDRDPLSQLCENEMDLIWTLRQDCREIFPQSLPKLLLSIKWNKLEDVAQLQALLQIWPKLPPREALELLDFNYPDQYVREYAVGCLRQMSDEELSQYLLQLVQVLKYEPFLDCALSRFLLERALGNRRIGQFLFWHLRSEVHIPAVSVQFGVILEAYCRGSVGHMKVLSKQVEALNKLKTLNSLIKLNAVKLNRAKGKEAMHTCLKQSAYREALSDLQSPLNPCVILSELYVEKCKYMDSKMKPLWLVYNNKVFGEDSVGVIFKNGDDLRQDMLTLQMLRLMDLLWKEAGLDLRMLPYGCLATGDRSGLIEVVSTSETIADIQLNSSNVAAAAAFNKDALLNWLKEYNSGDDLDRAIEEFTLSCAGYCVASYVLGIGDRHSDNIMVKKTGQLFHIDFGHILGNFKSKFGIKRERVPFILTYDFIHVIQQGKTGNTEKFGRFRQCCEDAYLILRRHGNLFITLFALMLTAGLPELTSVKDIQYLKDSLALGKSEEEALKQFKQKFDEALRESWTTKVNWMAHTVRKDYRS
Chain of Serine/threonine-protein kinase SIK3 (Homo sapiens) (Q9Y2K2 whole entry, looked up): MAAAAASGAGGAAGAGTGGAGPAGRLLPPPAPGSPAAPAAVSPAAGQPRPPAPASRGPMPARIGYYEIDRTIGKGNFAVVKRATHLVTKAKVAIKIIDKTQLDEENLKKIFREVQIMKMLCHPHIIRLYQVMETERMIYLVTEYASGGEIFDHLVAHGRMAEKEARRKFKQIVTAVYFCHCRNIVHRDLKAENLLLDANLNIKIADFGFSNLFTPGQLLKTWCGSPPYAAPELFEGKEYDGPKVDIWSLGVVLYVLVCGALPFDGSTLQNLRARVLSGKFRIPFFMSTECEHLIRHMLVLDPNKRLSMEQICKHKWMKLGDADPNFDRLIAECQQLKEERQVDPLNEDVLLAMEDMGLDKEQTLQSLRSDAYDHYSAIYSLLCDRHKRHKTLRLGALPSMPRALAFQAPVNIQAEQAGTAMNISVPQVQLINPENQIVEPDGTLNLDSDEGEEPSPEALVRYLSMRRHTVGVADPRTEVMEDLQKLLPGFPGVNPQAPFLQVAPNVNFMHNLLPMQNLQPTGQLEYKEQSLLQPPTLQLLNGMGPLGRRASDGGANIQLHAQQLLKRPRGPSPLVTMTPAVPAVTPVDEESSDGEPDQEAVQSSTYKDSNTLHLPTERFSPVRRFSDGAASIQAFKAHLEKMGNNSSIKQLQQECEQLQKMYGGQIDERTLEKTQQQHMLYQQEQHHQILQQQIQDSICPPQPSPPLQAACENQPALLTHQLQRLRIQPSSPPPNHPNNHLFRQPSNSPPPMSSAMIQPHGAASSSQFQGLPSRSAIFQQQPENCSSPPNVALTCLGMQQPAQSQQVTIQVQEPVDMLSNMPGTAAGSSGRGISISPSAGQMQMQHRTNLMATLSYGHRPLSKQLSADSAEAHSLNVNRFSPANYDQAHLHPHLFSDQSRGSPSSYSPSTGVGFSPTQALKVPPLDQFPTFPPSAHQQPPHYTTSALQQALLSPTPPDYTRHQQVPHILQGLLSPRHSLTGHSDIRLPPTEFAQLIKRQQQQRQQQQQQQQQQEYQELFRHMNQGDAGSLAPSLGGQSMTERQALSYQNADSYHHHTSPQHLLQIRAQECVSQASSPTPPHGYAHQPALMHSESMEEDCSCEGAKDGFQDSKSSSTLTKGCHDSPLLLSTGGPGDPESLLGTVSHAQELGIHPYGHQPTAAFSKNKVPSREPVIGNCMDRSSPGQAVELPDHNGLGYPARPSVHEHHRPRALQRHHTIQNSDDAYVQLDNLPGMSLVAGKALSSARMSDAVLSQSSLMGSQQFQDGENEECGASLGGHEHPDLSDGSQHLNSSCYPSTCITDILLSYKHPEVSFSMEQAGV
Chain of Tyrosine-protein kinase Lyn (P07948 2-512 limits assumed): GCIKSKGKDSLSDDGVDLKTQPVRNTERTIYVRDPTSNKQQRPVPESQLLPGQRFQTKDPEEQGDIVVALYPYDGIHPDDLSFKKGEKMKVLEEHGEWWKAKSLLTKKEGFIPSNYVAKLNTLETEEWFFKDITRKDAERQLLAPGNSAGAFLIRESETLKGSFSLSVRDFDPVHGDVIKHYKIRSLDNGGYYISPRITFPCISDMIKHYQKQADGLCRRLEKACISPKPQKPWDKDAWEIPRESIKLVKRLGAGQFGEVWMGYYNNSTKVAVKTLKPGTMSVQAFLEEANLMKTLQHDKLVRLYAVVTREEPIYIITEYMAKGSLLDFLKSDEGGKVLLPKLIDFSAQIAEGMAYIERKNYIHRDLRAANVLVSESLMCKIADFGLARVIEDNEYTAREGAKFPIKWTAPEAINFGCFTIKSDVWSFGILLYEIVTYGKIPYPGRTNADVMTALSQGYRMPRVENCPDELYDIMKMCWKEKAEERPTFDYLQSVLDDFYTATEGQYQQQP
Chain of Tyrosine-protein kinase CSK (Homo sapiens) (P41240 2-450 limits assumed): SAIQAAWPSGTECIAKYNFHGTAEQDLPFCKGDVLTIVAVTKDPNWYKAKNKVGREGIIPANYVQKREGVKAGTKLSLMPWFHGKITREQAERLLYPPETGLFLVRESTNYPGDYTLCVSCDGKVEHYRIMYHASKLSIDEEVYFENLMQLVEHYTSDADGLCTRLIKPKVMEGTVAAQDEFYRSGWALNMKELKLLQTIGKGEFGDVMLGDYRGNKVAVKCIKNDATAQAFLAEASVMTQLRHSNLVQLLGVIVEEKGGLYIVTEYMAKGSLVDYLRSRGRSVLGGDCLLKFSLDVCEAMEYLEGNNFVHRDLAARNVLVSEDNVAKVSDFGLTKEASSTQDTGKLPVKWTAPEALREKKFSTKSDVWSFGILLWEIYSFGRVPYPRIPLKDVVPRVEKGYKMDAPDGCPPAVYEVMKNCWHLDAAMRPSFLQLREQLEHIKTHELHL
Chain of Ribosomal protein S6 kinase alpha-2 (Homo sapiens) (Q15349 whole entry): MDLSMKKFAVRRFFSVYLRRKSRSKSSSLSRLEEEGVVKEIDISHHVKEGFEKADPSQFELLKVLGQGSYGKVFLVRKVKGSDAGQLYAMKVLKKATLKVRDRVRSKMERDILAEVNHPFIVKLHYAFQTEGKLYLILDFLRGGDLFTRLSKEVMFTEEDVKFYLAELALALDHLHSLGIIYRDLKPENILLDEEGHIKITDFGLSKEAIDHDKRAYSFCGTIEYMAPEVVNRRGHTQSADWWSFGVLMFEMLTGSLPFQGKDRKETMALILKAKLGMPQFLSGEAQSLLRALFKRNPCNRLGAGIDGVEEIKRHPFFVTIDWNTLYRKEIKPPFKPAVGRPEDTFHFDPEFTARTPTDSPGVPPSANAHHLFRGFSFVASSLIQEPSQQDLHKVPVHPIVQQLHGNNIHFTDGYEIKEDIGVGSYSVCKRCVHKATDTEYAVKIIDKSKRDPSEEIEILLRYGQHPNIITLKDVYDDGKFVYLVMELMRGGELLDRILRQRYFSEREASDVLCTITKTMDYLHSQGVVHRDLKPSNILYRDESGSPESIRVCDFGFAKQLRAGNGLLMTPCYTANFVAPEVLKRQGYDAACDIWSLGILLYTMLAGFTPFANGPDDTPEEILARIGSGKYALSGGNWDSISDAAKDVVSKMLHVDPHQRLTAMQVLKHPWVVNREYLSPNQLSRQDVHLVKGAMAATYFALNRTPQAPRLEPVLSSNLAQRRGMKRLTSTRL
Chain of Aurora kinase B (Q96GD4 whole entry): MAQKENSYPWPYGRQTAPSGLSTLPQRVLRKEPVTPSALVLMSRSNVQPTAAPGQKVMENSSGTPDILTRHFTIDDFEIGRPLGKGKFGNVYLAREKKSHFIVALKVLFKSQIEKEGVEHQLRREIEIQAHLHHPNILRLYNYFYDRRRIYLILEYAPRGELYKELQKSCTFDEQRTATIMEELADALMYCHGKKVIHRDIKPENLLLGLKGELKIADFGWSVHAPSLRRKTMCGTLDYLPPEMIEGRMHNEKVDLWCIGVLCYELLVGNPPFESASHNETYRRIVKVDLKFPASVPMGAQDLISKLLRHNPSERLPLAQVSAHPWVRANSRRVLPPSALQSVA

SMILES: O=C(NOC[C@H](O)CO)c1ccc(F)c(F)c1Nc1ccc(I)cc1F
- % of control [1]: 52%

SMILES: COc1cc(N(C)c2ccnc3ccc(C(F)(F)F)cc23)cc(OC)c1OC
- % binding [2]: 74%

SMILES: Nc1cnc(N2CCc3cc(S(=O)(=O)Nc4c(F)cc(Cl)cc4F)cc(N4CCCC4=O)c32)nc1 [TP-020n]
- % of control [3]: 100%
- % of control [4]: 100%

SMILES: CC(C)(O)[C@H](F)CN1Cc2cc(NC(=O)c3cnn4cccnc34)c(N3CCOCC3)cc2C1=O
- dTM (Aurora kinase B): 0.5 K
- dTM [5]: 1 K

SMILES: CCN(CC)CCCCNc1ncc2cc(-c3cc(OC)cc(OC)c3)c(NC(=O)NC(C)(C)C)nc2n1
- % of control [6]: 100%
- % of control [7]: 100%

SMILES: CC[C@@H]1[C@H](F)C(=O)N[C@@H]1COc1nccc2cc(C(N)=O)c(OC)cc12 [ZIMLOVISERTIB]
- % of inhibition [8]: 0.5%

SMILES: O[C@H]1CC[C@H](Nc2ncc3nc(Nc4c(F)cc(F)cc4F)n([C@H]4CCOC4)c3n2)CC1
- % of control [9]: 100%

SMILES: N#Cc1cccc(-c2c[nH]c3ncnc(N4CCOCC4)c23)c1
- % of control [10]: 69%

SMILES: CNC(=O)Nc1ccc(-c2nc(N3CC4CCC(C3)O4)c3cnn(C4CCC5(CC4)OCCO5)c3n2)cc1
- % of inhibition [11]: 1%

SMILES: C=CC(=O)Nc1cccc(C(=O)Nc2ccc(Nc3cc(-c4[nH]c(SC)nc4C)ccn3)cc2)c1
- % of control ([12]; at 1 µM): 138%
- % of control ([12]; at 5 µM): 166%
- % of control ([13]; at 1 µM): 93%
- % of control ([13]; at 5 µM): 71%
